# Reference: US20090149417A1, “Methods and compositions for the treatment of cancer using benzopyrone-type PARP inhibitors” (priority 2007, published 2009)
# Tests used:
# Format in all cases: cell-based, human
# [1] = test system: Colo375FG metastatic pancreatic adenocarcinoma cells; assay: Live cell number (Coulter counter, methylene blue, PI exclusion)
# Method: Colo375FG metastatic pancreatic adenocarcinoma cells are cultured in Dulbecco Modified Eagle Medium with 10% fetal bovine serum. Cells are plated at 10^5 per P100 or at 10^4 per P60 (for assays requiring up to 3 days of culture), in the presence of different concentrations of BiPar compounds and other agents, or DMSO control. Following treatment, the number of attached cells is measured using Coulter counter, and by staining with 1% methylene blue. Methylene blue is dissolved in 50%-50% mixture of Methanol and water. Cells are plated in 24- or 96-well plates and treated with compounds as indicated, then media are aspirated, cells are washed with PBS, fixed in methanol for 5-10 min, washed and the plates are allowed to dry completely. Methylene blue solution is added to wells and plates are incubated for 5 min. Staining solution is removed and plates are washed with dH2O. After plates are completely dry, a small amount of 1N HCl is added to each well to extract the methylene blue. The OD readout at 600 nm and a calibration curve are used to determine cell number.
# IIIg (6-nitro-5-iodo-benzopyrone) is dissolved directly from dry powder to 10 mM stock solution in DMSO for each separate experiment, and then the entire volume of the stock solution is used to prepare working concentrations in cell culture medium to avoid any possibility of precipitation and the corresponding loss of compound. Control experiments are carried out with the matching volume/concentration of the vehicle (DMSO).
# (§1) After the addition of drugs and incubation, cells are trypsinized and aliquots of the samples are taken for counting and PI (Propidium Iodide) exclusion assay. One part of the cells is centrifuged and resuspended in 0.5 ml ice-cold PBS containing 5 μg/ml of PI. The other part of the cells is fixed in ice-cold 70% ethanol and stored in a freezer overnight. For cell cycle analysis, cells are stained with propidium iodide (PI) by standard procedures. Cellular DNA content is determined by flow cytometry using BD LSRII FACS, and the percentages of cells in G1, S or G2/M are determined using ModFit software.
# Colo375FG metastatic pancreatic adenocarcinoma cells are obtained from ATCC and cultured in Dulbecco Modified Eagle Medium with 10% fetal bovine serum. Cells are plated at 10^5 cells per P100 cell culture dish or at 10^4 cells per P60 cell culture dish in the presence of different concentrations compounds or DMSO control. Following treatment, the number of attached cells is measured using Coulter counter, and by staining with 1% methylene blue. Methylene blue is dissolved in 50%-50% mixture of Methanol and water. Cells are plated in 24- or 96-well plates and treated as planned, media are aspirated, cells are washed with PBS, fixed in methanol for 5-10 min, methanol is aspirated and plates are allowed to dry completely. Methylene blue solution is added to wells and plates are incubated for 5 min. Staining solution is removed and plates are washed with dH2O until washes are no longer blue. After plates are completely dry, a small amount of 1N HCl is added to each well to extract the methylene blue. The OD readout at 600 nm and a calibration curve are used to determine cell number.
# Compounds of the invention are dissolved directly from dry powder to 10 mM stock solution in DMSO for each separate experiment. Control experiments are carried out with the matching volume/concentration of the vehicle (DMSO). In these controls, the cells show no changes in their growth or cell cycle distribution.
# as §1, with “ug/ml” for “μg/ml”, “Cellular DNA content is determined by flow cytometry using BD LSRII FACS, and the percentages of cells in G1, S or G2/M are determined using ModFit software.” left out
# [2] = test system: Colo375FG metastatic pancreatic adenocarcinoma cells; assay: TUNEL apoptosis assay (flow cytometry)
# Method: Cells are labeled for apoptosis with the “In Situ Cell Death Detection Kit, Fluorescein” (Roche Diagnostics Corporation, Roche Applied Science, Indianapolis, Ind.). Briefly, fixed cells are centrifuged and washed once in phosphate-buffered saline (PBS) containing 1% bovine serum albumin (BSA), then resuspended in 2 ml permeabilization buffer (0.1% Triton X-100 and 0.1% sodium citrate in PBS) for 25 min at room temperature and washed twice in 0.2 ml PBS/1% BSA. The cells are resuspended in 50 μl TUNEL reaction mixture (TdT enzyme and labeling solution) and incubated for 60 min at 37° C. in a humidified dark atmosphere in an incubator. The labeled cells are washed once in PBS/1% BSA, then resuspended in 0.5 ml ice-cold PBS containing 1 μg/ml 4′,6-diamidino-2-phenylindole (DAPI) for at least 30 min. All cell samples are analyzed with a BD LSR II (BD Biosciences, San Jose, Calif.).
# The cells are labeled for apoptosis with the “In Situ Cell Death Detection Kit, Fluorescein” (Roche Diagnostics Corporation, Roche Applied Science, Indianapolis, Ind.). Briefly, fixed cells are centrifuged and washed once in phosphate-buffered saline (PBS) containing 1% bovine serum albumin (BSA), then resuspended in 2 ml permeabilization buffer (0.1% Triton X-100 and 0.1% sodium citrate in PBS) for 25 minutes at room temperature and washed twice in 0.2 ml PBS/1% BSA. The cells are resuspended in 50 μl TUNEL reaction mixture (TdT enzyme and labeling solution) and incubated for 60 min at 37° C. in a humidified dark atmosphere in an incubator. The labeled cells are washed once in PBS/1% BSA, then resuspended in 0.5 ml ice-cold PBS containing 1 μg/ml 4,6-diamidino-2-phenylindole (DAPI) for at least 30 min. All cell samples are analyzed with a BD LSR II (BD Biosciences, San Jose, Calif.).
# [3] = test system: Colo375FG metastatic pancreatic adenocarcinoma cells; assay: Bromodeoxyuridine (BrdU) labeling assay (flow cytometry); settings: Compound IIIc 12.5 mM; one value printed beside OxaliPt 0 10 20 mM, OxaliPt level not assignable
# Method: 50 μl of BrdU (Sigma Chemical Co., St. Louis, Mo.) stock solution (1 mM) is added to give 10 μM BrdU final concentration. The cells are incubated for 30 min at 37° C. and fixed in ice-cold 70% ethanol and stored in a cold room (4° C.) overnight. Fixed cells are centrifuged and washed once in 2 ml PBS, then resuspended in 0.7 ml of denaturation solution (0.2 mg/ml pepsin in 2 N HCl) for 15 min at 37° C. in the dark and suspended with 1.04 ml 1M Tris buffer (Trizma base, Sigma Chemical Co.) to terminate the hydrolysis and washed in 2 ml PBS.
# (§2) Cells are resuspended in 100-μl anti-BrdU antibody (DakoCytomation, Carpinteria, Calif.) with 1:100 dilution in TBFP permeable buffer (0.5% Tween-20, 1% bovine serum albumin and 1% fetal bovine serum in PBS) and incubated for 25 min at room temperature in the dark and washed in 2 ml PBS. The primary antibody-labeled cells are resuspended in 100 μl Alexa Fluor F(ab′)2 fragment of goat anti-mouse IgG (H+L) (2 mg/mL) (Molecular Probes, Eugene, Oreg.) with 1:200 dilution in TBFP permeable buffer and incubated for 25 min at room temperature in the dark and washed in 2 ml PBS, then resuspended in 0.5 ml ice-cold PBS containing 1 μg/ml 4′,6-diamidino-2-phenylindole (DAPI) for at least 30 min. All cell samples are analyzed with a BD LSR II (BD Biosciences, San Jose, Calif.).
# as §2, with “50 μl of BrdU (Sigma Chemical Co., St. Louis, Mo.) stock solution (1 mM) is added to give 10 μM BrdU final concentration. The cells are incubated for 30 min at 37 °C and fixed in ice-cold 70% ethanol and stored in a cold room (4 °C) overnight. Fixed cells are centrifuged and washed once in 2 ml PBS, then resuspended in 0.7 ml of denaturation solution (0.2 mg/ml pepsin in 2 N HCl) for 15 min at 37° C. in the dark and suspended with 1.04 ml 1M Tris buffer (Trizma base, Sigma Chemical Co.) and washed in 2 ml PBS. Then cells” for “Cells”
# [4] = Compound IIIc 12.5 mM, OxaliPt 0 mM
# [5] = combination: Compound IIIc 12.5 mM + OxaliPt 10 mM
# [6] = combination: Compound IIIc 12.5 mM + OxaliPt 20 mM
smiles,measurement,setting,value
O=c1ccc2c(CCCCN3CC=C(c4ccccc4)CC3)c([N+](=O)[O-])ccc2o1 [IIIc],Live Cell (%),[1]; [4],54%
same,Live Cell (%),[1]; [5],33%
same,Live Cell (%),[1]; [6],25%
same,Dead cells TUNEL (%),[2]; [4],2.7%
same,Dead cells TUNEL (%),[2]; [5],16.1%
same,Dead cells TUNEL (%),[2]; [6],28.2%
same,Cells in S-phase of cell cycle (% BrdU+),[3],73.87%
